Experimental data: patent US20140357706A1, “Stearate Compounds” (THE UAB RESEARCH FOUNDATION, priority 2011, published 2014)

Tests used:
[1] = test system: p21^CIP1/WAF1, p27^KIP1, pCdk2; experiment: Immunoblot of p21CIP1/WAF1, p27KIP1 and phosphorylated Cdk2 in Hs578T cells; format: cell-based, human
Protocol: (§1) The concentration of stearate used to treat the Hs578T cells was 50 μM. When EGF was used, the concentration was 1 nM EGF. Before the treatment with stearate or EGF, cells were first starved for 24-48 hours. Stearate was loaded onto fatty acid-free bovine serum albumin (BSA) according to the method reported by Spector et al. (13); briefly, stearate (0.5 g) was dissolved in chloroform (100 ml) and mixed well with 10 g diatomaceous earth in a 1 liter flask. The mixture was stirred and dried under nitrogen until powder. BSA is a physiological carrier of fatty acids and was used to avoid the introduction of organic solvents to solutions coming into contact with cells. Fatty acid-free BSA (1 g) was dissolved in 100 ml with Dulbecco's modified Eagle's medium without phenol red and mixed with 3 g of the stearate/diatomaceous earth mixture with stirring for 45 min. The stearate/BSA solution was filtered through a 0.45 μm filter, and adjusted to pH 7.4. The concentration of stearate in the solution was detected with the NEFA C Kit from Wako Chemicals GmbH (Neuss, Germany). All experimental data on Hs578T cells were controlled using fatty acid-free BSA control solutions that were put through the same preparatory procedure described for the stearate/BSA solution except for the fact that no fatty acid was added.
Cells were treated as described above, and lysed with lysis buffer. The supernatants of the lysates or the immunoprecipitates were loaded with Laemmli sample buffer on 10% sodium dodecyl sulfate-polyacrylamide gel electrophoresis gels after boiling at 100° C. for 5 min. Proteins were then transferred to a polyvinylidene difluoride membrane. The membranes were blocked overnight at 4° C. with blocking buffer containing 5% non-fat dried milk powder in Tris-buffered saline-T (25 mM Tris, 140 mM NaCl, 2.7 mM KCl, 0.05% Tween-20, pH 8.0), incubated with primary antibody in blocking buffer at room temperature for 1 hour and incubated with antirabbit or antimouse antibodies labeled with horseradish peroxidase (1:5000) in blocking buffer under the same conditions, and then washed three times for 10 min in Tris-buffered saline-T. The polyvinylidene difluoride membranes were washed and developed using enhanced chemiluminescence reagents.

ERK = experiment: Immunoblot of phosphorylated ERK in Hs578T cells; format: cell-based, human; settings: PD98059 added to Hs578T cells
Protocol: as §1
Cells were treated as described above, and lysed with lysis buffer. […]

[2] = test system: differentiated 3T3L1 adipocytes; experiment: Necrosis and apoptosis of differentiated 3T3L1 adipocytes (trypan blue, LDH, flow cytometry); format: cell-based, mouse; settings: 50 μM
Protocol: 3T3L1 mouse fibroblast cells (ATCC, CL-173™) were maintained according to the manufacture's protocol, in Dulbecco's modified eagle's medium (DMEM) containing 10% Fetal Bovine Serum and antibiotics (M1 medium). Adipocyte differentiation was performed according to standard procedures (42). Briefly, the 3T3L1 fibroblasts were seeded at 30% confluence and allowed to grow to near 100% confluence. On the day after reaching maximum confluence, conversion was induced by replacing the M1 medium with M1 medium containing insulin (5 μg/ml), dexamethasone (0.25 μM), and 3-isobutyl-1-methyl-xanthine (0.5 mM). After 2 days, the cells were changed to M1 medium with insulin (5 μg/ml) for an additional 2 days. Thereafter, the cells were maintained in M1 medium without additives for 2 days.
(§2) 50 μM of stearate, oleate or linoleate was used to treat 3T3L1 cells as this concentration is centered within the normal range for non-esterified stearate in the plasma of humans. Stearate, oleate, or linoleate was loaded onto fatty acid free BSA according to the method reported by Spector and Hoak (Spector and Hoak, 1969). Briefly, stearate (0.5 g) was dissolved in chloroform (100 mL) and mixed well with 10 g diatomaceous earth in a 1 liter flask. The mixture was stirred and dried under nitrogen until powder. Fatty acid free BSA (1 g) was dissolved in 100 mL with DMEM without phenol red and mixed with 3 g of the stearate/diatomaceous earth mixture and stirred for 30 minutes. The stearate/BSA solution was filtered through a 0.45 μm filter, and adjusted to pH 7.4. The concentration of stearate in the solution was detected by use of a NEFA C kit. Oleic and linoleate were loaded in the same way. […] Before the treatment with fatty acid, 3T3L1 preadipocytes were grown to 100%, and were starved in 2% FBS medium for 24 hours.
(§3) After treatment, 3T3L1 cells were harvested, washed with cold PBS, and then resuspended in 100 μl annexin-binding buffer (50 mM HEPES, 700 mM NaCl, 12.5 mM CaCl2, pH 7.4). Cell density was determined, and the cells were diluted to 10^6 cells. Then 5μL of Alex Fluo 488 annexin V and 1 μL propidium iodide (PI) were added. Cells were gently oscillated and incubated for 15 min at room temperature. After adding 400 μL of binding buffer to each tube, cells were kept on ice and analyzed by flow cytometry within 1 hour. Cells that stained positive for Alex Fluo 488 annexin V and negative for PI were considered to be apoptotic. Cells that stained positive for both Alex Fluo 488 annexin V and PI were considered either in the end stage of apoptosis, or necrosis. Cells that stained negative for both Alex Fluo 488 annexin V and PI were considered alive and not undergoing measurable apoptosis. A BD LSR II flow cytometer from Becton Dickinson was used in all flow experiments and the data were analyzed with BD FACSDiva™ software V.6.1.3.
(§4) Lactate dehydrogenase (LDH) release was measured using a cytotoxicity detection kit, according to the manufacture's protocol. After 3T3L1 cells were treated, 1 ml of cell culture medium was removed and centrifuged. The supernatant was retained for assaying. For determinations, 100 μl of LDH assay reagent was added to 100 μl of supernatant and incubated for 30 min at room temperature in the dark. Absorbance was measured at 490 nm. Background release from culture medium alone was subtracted before reporting. Maximum release was measured after adding 2% Triton X-100 to untreated cells.
(§5) After treatment, 3T3L1 cells were harvested and stained with 0.4% trypan blue solution. Cells in the four corners of the grid were counted under a conventional bright field binocular microscope.

3T3L1 preadipocytes = experiment: Cell death and apoptosis of 3T3L1 preadipocytes (trypan blue, LDH, flow cytometry); format: cell-based, mouse; settings: 50 μM, vs control; for Percentage of dead cells (trypan blue): 48 hour treatment; for Dead cells (flow cytometry): 48 hours; for Cytotoxicity (lactate dehydrogenase): after 24 hours
Protocol: as §2, §3, §4, §5

[3] = test system: visceral adipocytes from ApoE knockout mice; experiment: Expression of cIAP2, Bcl-2 and Bax in visceral adipocyte cultures; format: cell-based; settings: 50 μM fatty acid; vs no additional fatty acid
Protocol: It was hypothesized that stearate induces apoptosis in visceral adipocytes by at least one of the following mechanisms: inhibition of cIAP2, activation of Bcl-2, and activation of BAX. […] Six cultures were exposed to each fatty acid or no fatty acid. The expression of cIAP2, Bcl-2, and Bax was measured in each culture. […] By decreasing levels of the cIAP2 and/or Bcl-2 polypeptides and increasing expression of the Bax polypeptide, stearate administration may lead to an increase in cellular apoptotic activity (such as but not limited to the visceral fat tissues). Without wishing to be bound by any given hypothetical model, it is proposed that this reduction in cIAP2 expression and this increase in Bax expression (independently or in combination) is responsible for the relative decrease in visceral fat tissue that is observed when animals are given a diet that is high in stearate.

[4] = PD98059 in stearate-treated cells

With `COc1cccc(-c2cc(=O)c3ccccc3o2)c1N` [PD98059, 2′-amino-3′-methoxyflavone, reference compound] as the compound, how does the “Stearate-induced upregulation of p21^CIP1/WAF1” value ([1]; PD98059 added following stearate and EGF treatment) read?
Its value is “reverses”.

What about the “Stearate-induced decrease in pCdk2” value [1, 4] of the same compound?
Its value is “only partially reversed”.

And the “Stearate-induced increases in p27^KIP1” value [1, 4]?
Its value is “did not reverse”.

What about the “ERK phosphorylation induced by stearate and EGF” value (ERK) of the same compound?
Its value is “blocked”.

`CCCCC/C=C\C/C=C\CCCCCCCC(=O)O` [linoleate, linoleic acid] was tested. Which “Cytotoxicity (lactate dehydrogenase in medium)” value [2] did it give?
The value was “no significant changes”.

What about the “Percentage of apoptotic cells (flow cytometry)” value [2] of the same compound?
The value was “no significant changes”.

What about the “Percentage of dead cells (flow cytometry)” value [2] of the same compound?
Its value is “no significant changes”.

And the “Percentage of dead cells (trypan blue)” value [2]?
Its value is “no significant changes”.

And the “Percentage of dead cells (trypan blue)” value (3T3L1 preadipocytes)?
Its value is “no significant changes”.

What about the “Dead cells (flow cytometry)” value (3T3L1 preadipocytes) of the same compound?
The value was “no significant effects”.

And the “Cytotoxicity (lactate dehydrogenase)” value (3T3L1 preadipocytes)?
Its value is “did not change significantly”.

What about the “Apoptotic cells (flow cytometry)” value (3T3L1 preadipocytes) of the same compound?
The value was “No significant changes”.

What about the “Expression of Bax” value [3] of the same compound?
Its value is “increased the expression of Bax to a lesser extent”.

What about the “Expression of cIAP2” value [3] of the same compound?
The value was “no statistically significant effect”.

For `CCCCCCCC/C=C\CCCCCCCC(=O)O` [oleate, oleic acid], which “Cytotoxicity (lactate dehydrogenase in medium)” value [2] is on record?
Its value is “no significant changes”.

What about the “Percentage of apoptotic cells (flow cytometry)” value [2] of the same compound?
The value was “no significant changes”.

What about the “Percentage of dead cells (flow cytometry)” value [2] of the same compound?
The value was “no significant changes”.

And the “Percentage of dead cells (trypan blue)” value [2]?
The value was “no significant changes”.

And the “Percentage of dead cells (trypan blue)” value (3T3L1 preadipocytes)?
The value was “no significant changes”.

And the “Dead cells (flow cytometry)” value (3T3L1 preadipocytes)?
Its value is “significantly decreased”.

What about the “Cytotoxicity (lactate dehydrogenase)” value (3T3L1 preadipocytes) of the same compound?
The value was “significantly decreased”.

What about the “Apoptotic cells (flow cytometry)” value (3T3L1 preadipocytes) of the same compound?
The value was “decreased”.
